# Measured values taken from patent US6586450B2, “Phenethyl-thiourea compounds and use” (Parker Hughes Institute, priority 1999, dated 2003).
# Where two headings read alike, the source gives them in different places.
# Experiments:
# HIV-1 strain HTLVIIIB = test: Inhibition of HIV-1 HTLVIIIB replication in PBMC (p24 antigen EIA); type: cell-based
# Experimental: The HIV strain HTLVIIIB was kindly provided by Dr. Neal T.Wetherall, VIROMED Laboratories, Inc., and was propagated in CCRF-CEM cells.
# Subsequently, cells were cultured in 96-well microplates (100 μL/well; 2×10^6 cells/mL, triplicate wells) in the presence of various inhibitor concentrations. […] Ag. […] The applied p24 EIA was the unmodified kinetic assay commercially available from Coulter Corporation/Immunotech, Inc. (Westbrook, Me.).
# (§1) Percent inhibition of viral replication was calculated by comparing the p24 values from the test substance-treated infected cells with p24 values from untreated infected cells (i.e, virus controls).
# [1] = tested on: multidrug resistant HIV-1 strain RT-MDR with a V106A mutation; test: microbe, parasite or virus in culture; type: cell-based
# Experimental: (§2) Normal human peripheral blood mononuclear cells (PBMNC) from HIV-negative donors were cultured 72 hours in RPMI 1640 supplemented with 20% (v/v) heat-inactivated fetal bovine serum (FBS), 3% interleukin-2,2 mM L-glutairine, 25 mM HEPES, 2 μL, NAHCO, […] gentamicin, and 4 μg/mL phytohemagglutinin prior to exposure to HIV-1 or other HIV strain at a multiplicity of infection (MOI) of 0.1 during a one-hour adsorption period at 37° C. in a humidified 5% CO2 atmosphere. Subsequently, cells were cultured in 96-well microplates (100 μL/well; 2×10^6 cells/mL, triplicate wells) in the presence of various inhibitor concentrations. Aliquots of culture supernatants were removed from the wells on the 7th day after infection for p24 antigen p24 enzyme immunoassays (EIA), as previously described in Erice et al., 1993, Antimicrob. Ag. Chemotherapy 37:385-838. The applied p24 EIA was the unmodified kinetic assay commercially available from Coulter Corporation/Immunotech, Inc. (Westbrook, Me.).
# as §1
# [2] = tested on: NNI-resistant HIV-1 strain A17 with a Y181C mutation; test: microbe, parasite or virus in culture; type: cell-based; details: for IC50: read-out: IC50 A17 (Y181C)
# Experimental: as §2, §1
# [3] = target: T1, purified recombinant HIV RT (Human immunodeficiency virus type 1 group M subtype B, UniProt P04585); test: Purified recombinant HIV RT inhibition, cell-free Quan-T-RT scintillation proximity assay; type: biochemical
# T1 construct: against purified recombinant HIV RT using the cell-free Quan-T-RT system
# Experimental: In the assay, a DNA/RNA template is bound to SPA beads via a biotin/strepavidin linkage. The primer DNA is a 16-mer oligo(T) which has been annealed to a poly(A) template. The primer/template is bound to a strepavidin-coated SPA bead.
# ^3H-TTP is incorporated into the primer by reverse transcription. […] The compound being tested was added to the reaction mixture at 0.001 μM-100 μM concentrations. […] The reaction was stopped by addition of 0.2 ml of 120 mM EDTA. The samples were counted in an open window using a Beckman LS 7600 instrument and IC50 values were calculated by comparing the measurements to untreated samples.
# [4] = Microculture tetrazolium Assay (MTA, XTT) for cytotoxicity; type: cell-based, human; details: human, PBMC; Table 1; cytotoxicity, MTA
# PBMC = test: as above; type: cell-based, human
# [5] = Human immunodeficiency virus 1, PBMC, Table 2, wild-type HIV-1, read-out: IC50 p24
# [6] = Human immunodeficiency virus 1, Table 1, p24 production in PBMC, read-out: IC50 HTLV mB
# [7] = Human immunodeficiency virus 1, PBMC, read-out: IC50 RT-MDR
# [8] = Human immunodeficiency virus 1, PBMC
# [9] = Table 1, recombinant HIV RT, read-out: IC50 rRT
# [10] = Table 2, recombinant HIV reverse transcriptase, read-out: IC50 rRT
# [11] = read-out: IC50 rRT, Table 2, recombinant HIV reverse transcriptase
# [12] = Human immunodeficiency virus 1, PBMC, read-out: IC50 HTLV mB
structure (smiles),measurement,setting,value
"S=C(NCCc1ccc(Br)cc1)Nc1ccc(Br)cn1 [HI-243, N-[2-(4-bromophenethyl)]-N′-[2-(5-bromopyridyl)]thiourea]",melting point,,184 to 185 °C
same,IC50,HIV-1 strain HTLVIIIB; [5],70 nM
same,IC50,HIV-1 strain HTLVIIIB; [6],70 nM
same,IC50,[1]; [7],> 1 nM
same,IC50,[2]; [8],1000 nM
same,IC50,[3],900 nM
same,CC50,[4],> 100000 nM
O=[N+]([O-])c1ccc(CCNC(=S)Nc2ccc(Br)cn2)cc1 [HI-231],IC50,[3]; [9],> 100000 nM
same,IC50,[3]; [10],> 100000 nM
"S=C(NCCc1ccccc1)Nc1ccc(Br)cn1 [HI-275, N-[2-(5-Bromopyridinyl)]-N′-[2-(Phenethyl)] thiourea]",IC50,[3]; [9],1300 nM
"S=C(NCCc1ccc(Cl)cc1)Nc1ccc(Br)cn1 [HI-255, N-[2-(4-chlorophenethyl)]-N′-[2-(5-bromopyridyl)]thiourea]",melting point,,180 to 183 °C
same,IC50,HIV-1 strain HTLVIIIB; [6],20800 nM
same,IC50,[3],2500 nM
same,IC50,[3]; [11],2500 nM
"Cc1ccc(CCNC(=S)Nc2ccc(Br)cn2)cc1 [HI-244, N-[2-(4-methylphenethyl)]-N′-[2-(5-bromopyridyl)]thiourea]",melting point,,159 to 162 °C
same,IC50,HIV-1 strain HTLVIIIB; [12],7 nM
same,IC50,"HIV-1 strain HTLVIIIB; Human immunodeficiency virus 1, PBMC, read-out: IC50 for inhibition of replication of HIV-1 strain HTLVIIIB in PBMC",7 nM
same,IC50,"HIV-1 strain HTLVIIIB; Human immunodeficiency virus 1, PBMC, read-out: IC50 p24",7 nM
same,selectivity index,HIV-1 strain HTLVIIIB; against wild-type HIV-1 strain HTLVIIIB,"> 10,000"
same,IC50,[1]; [7],> 1 nM
same,times more effective than trovirdine,"[1]; RT-MDR strain, V106A plus 74V, 41L, 215Y",20 times
same,resistance of mutant strain to compound,[1]; V106A mutant strain (RT-MDR),no resistance
same,selectivity index,[1]; against multidrug-resistant V106A mutant strain RT-MDR,"> 71,000"
same,times more potent than trovirdine,"[2]; A17 strain, Y181C",7 times
same,IC50,[2]; [8],70 nM
same,higher potency relative to trovirdine,[2]; NNI-resistant A17 strain (Y181C mutation),7 fold
same,resistance of mutant strain to compound,[2]; Y181C mutant strain (A17 strain),10 fold
same,selectivity index,[2]; against NNI-resistant Y181C mutant strain A17,"> 1,000"
same,IC50,[3],100 nM
same,CC50,[4],71000 nM
same,cytotoxicity to PBMC,PBMC; at a concentration,not cytotoxic
"Oc1ccc(CCNC(=S)Nc2ccc(Br)cn2)cc1 [HI-256, N-[2-(4-hydroxyphenethyl)]-N′-[2-(5-bromopyridyl)]thiourea]",IC50,HIV-1 strain HTLVIIIB; [12],3070 nM
same,IC50,[3],87700 nM
same,CC50,[4],> 100000 nM
"S=C(NCCc1ccccn1)Nc1ccc(Br)cn1 [Trovirdine, reference compound]",IC50,"HIV-1 strain HTLVIIIB; Table 1, p24 production in PBMC, read-out: IC50 HTLV mB",7 nM
same,IC50,"HIV-1 strain HTLVIIIB; Table 2, wild-type HIV-1, read-out: IC50 p24",7 nM
same,times less potent than HI-244,[1]; RT-MDR strain,20 times
same,IC50,"[1]; Table 1, p24 production in PBMC, read-out: IC50 RT-MDR (Y106A)",20 nM
same,IC50,"[2]; Table 1, p24 production in PBMC",500 nM
same,CC50,"PBMC; Table 1, cytotoxicity, MTA",> 100000 nM
"COc1ccc(CCNC(=S)Nc2ccc(Br)cn2)cc1 [HI-238, N-[2-(4-methoxyphenethyl)]-N′-[2-(5-bromopyridyl)]thiourea]",melting point,,178 to 179 °C
same,IC50,HIV-1 strain HTLVIIIB; [5],15 nM
same,IC50,HIV-1 strain HTLVIIIB; [6],15 nM
same,IC50,[3],900 nM
same,IC50,[3]; [11],900 nM
same,CC50,[4],> 100000 nM
"Fc1ccc(CCNC(=S)Nc2ccc(Br)cn2)cc1 [HI-242, N-[2-(4-fluorophenethyl)]-N′-[2-(5-bromopyridyl)]thiourea]",IC50,[3]; [9],6400 nM
same,IC50,[3]; [10],6400 nM
